Assay results taken from patent US20240140931A1, “TRICYCLIC COMPOUNDS AND USES THEREOF” (HUTCHMED LIMITED, priority 2021, published 2024).
pIC50: −log10 of the molar value.

Tests used:
[1] = biological target: Human full-length SHP2 recombinant protein (Homo sapiens (Human), UniProt Q06124); test: Assay of full-length SHP2 phosphatase activity; format: biochemical; conditions: DiFMUP substrate, with activating peptide
In short: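 Full-length human SHP2 preincubated 30 min at RT with activating peptide and compound (1% DMSO final). DiFMUP substrate added, reaction 60 min at 25 °C in dark. Fluorescence at ex 355/em 460 nm; IC50 from 4-parameter fit against enzyme-free and vehicle controls.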

[2] = tested on: pERK1/2 (Thr202/Tyr204) in Miapaca2 cells; test: Assay of intracellular pERK1/2 (Thr202/Tyr204) phosphorylation; format: cell-based; conditions: pERK1/2 (Thr202/Tyr204) HTRF
In short: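 Miapaca2 cells treated 2 h at 37 °C with compound (3-fold series; final DMSO 0.5%), then lysed 1 h. pERK1/2 (Thr202/Tyr204) detected by HTRF (665/615 nm ratio) after 2 h at 25 °C; normalized to cell-free lysis buffer and DMSO-treated cell controls; IC50 by four-parameter fit.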

[3] = tested on: Miapaca2 3D spheroids; test: Assay of cell proliferation on Miapaca2 3D spheroids; format: cell-based; conditions: CellTiter-Glo 3D, 5 days treatment
Description: Example 4 Assay of Cell Proliferation on Miapaca2 3D Spheroids
1. Reagents and Materials • CellTiter-Glo® 3D Cell Viability Assay Kit: Promega, Cat #G9683; • CellCarrier Spheroid ULA 96-well plate: Corning, Cat #4515; • Instrument: Envision, Perkinelmer; • Cell line: Miapaca2, ATCC, Cat #CRL-1420.
2. Preparation of Reaction Solutions • The test compound was dissolved in DMSO and diluted with DMSO to 3000.0 μM, and the compound was further 3-fold diluted with DMSO to: 1000.0, 333.3, 111.1, 37.0, 12.3, 4.1, and 1.4 μM. Then 2 μL of the compound at different dilution concentrations was added to 198 μL of a 1640 medium to prepare a 10× test compound, wherein DMSO was at the concentration of 1% (DMSO was at the final concentration of 0.1%).
3. Experimental Methods • Day0: Digest cells and count cell numbers. Miapaca2 cells were inoculated into a spheroid ULA 96-well plate at a density of 300 cells/well at 100 μL/well and cultured in a cell incubator at 5% CO2 and 37° C. • Day2: The cell spheroids formed at day2. Add 10 μL of 10× test compounds to the 96-well plate. To the cell positive control well was added 10 μL of 1% DMSO 1640 medium. Incubate the cell spheroids in a cell incubator at 5% CO2 and 37° C. for additional 5 days. • Cell viability assay: Add 50 μL of CellTiter-Glo reagent to each well, place the plate in a microplate shaker, and lysis under shaking at 900 rpm at room temperature for 5 minutes. Then incubate the plate at room temperature in the dark for 30 minutes. • The luminescene of each well was detected on Envision2104.
Cell Survial %=(Lum(d7 treatment)−Lum(d2 cell))/(Lum(d7 cell)−Lum(d2 cell))×100
Wherein: • Lum(d7 treatment) refers to the luminescene of the test compound treated cells on day7; • Lum(d2 cell) refers to the luminescene of the 0.1% DMSO treated Miapaca2 cells on day2; • Lum(d7 cell) refers to the luminescene of the 0.1% DMSO treated Miapaca2 cells on day7. • IC50 values were calculated following formula 205: y=A+((B−A)/(1+((C/X)^D))), by using the XL-Fit 5.0 software.

[4] = Homo sapiens, MIA PaCa-2, 120 h

Chain of Human full-length SHP2 recombinant protein (Q06124 whole entry): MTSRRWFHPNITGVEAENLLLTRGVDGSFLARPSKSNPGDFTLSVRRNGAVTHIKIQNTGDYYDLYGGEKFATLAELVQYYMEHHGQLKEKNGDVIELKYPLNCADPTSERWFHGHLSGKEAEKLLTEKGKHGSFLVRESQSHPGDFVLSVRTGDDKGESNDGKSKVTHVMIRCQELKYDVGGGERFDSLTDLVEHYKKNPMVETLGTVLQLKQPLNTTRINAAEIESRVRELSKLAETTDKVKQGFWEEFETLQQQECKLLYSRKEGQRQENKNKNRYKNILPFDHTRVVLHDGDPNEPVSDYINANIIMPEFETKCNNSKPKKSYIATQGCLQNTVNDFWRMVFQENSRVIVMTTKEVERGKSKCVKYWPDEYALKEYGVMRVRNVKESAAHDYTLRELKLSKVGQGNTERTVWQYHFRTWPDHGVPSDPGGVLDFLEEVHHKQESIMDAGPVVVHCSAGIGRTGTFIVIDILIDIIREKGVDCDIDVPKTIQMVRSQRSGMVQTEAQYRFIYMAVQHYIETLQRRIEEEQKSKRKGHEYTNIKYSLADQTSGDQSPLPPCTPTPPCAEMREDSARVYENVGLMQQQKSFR

Row | Compound | pIC50 [1] | pIC50 ([2]; 2 hours) | pIC50 [3, 4] | pIC50 ([2]; Homo sapiens, MIA PaCa-2, 2 h) | pIC50 [3]
1 | C#Cc1ccc2c(c1)[C@@H](N)C1(CCN(c3cc(=O)n(-c4ccc(C#N)c(OC)c4Cl)c(C)n3)CC1)C2 [Compound 183] | 8.70 | 7.30 | 7.17 | – | –
2 | C#Cc1ccc2c(c1)[C@@H](N)C1(CCN(c3cc(=O)n(-c4ccc(C#N)c(Cl)c4Cl)c(C)n3)CC1)C2 [Compound 184] | 8.52 | 7.17 | 7.02 | – | –
3 | CNC(=O)C#Cc1ccc2c(c1)[C@@H](N)C1(CCN(c3nc(N)c(Sc4ccnc(N)c4Cl)nc3C)CC1)C2 [Compound 187] | 9.00 | – | 8.52 | 8.52 | –
4 | CNC(=O)C#Cc1ccc2c(c1)[C@@H](N)C1(CCN(c3nc(N)c(Sc4ccnc(OC)c4Cl)nc3C)CC1)C2 [Compound 188] | 8.30 | – | 7.33 | 7.85 | –
5 | CNC(=O)C#Cc1ccc2c(c1)[C@@H](N)C1(CCN(c3nc(N)c(Sc4ccnc(C)c4Cl)nc3C)CC1)C2 [Compound 189] | 9.00 | – | 7.82 | 8.15 | –
6 | Cc1nc(N2CCC3(CC2)Cc2ccc(C#CC(=O)N(C)C)cc2[C@H]3N)cc(=O)n1-c1cccc(Cl)c1Cl [Compound 194] | 9.00 | – | 7.44 | 7.74 | –
7 | Cc1c(N2CCC3(CC2)Cc2ccc(C#CC(=O)N(C)C)cc2[C@H]3N)nc(C)n(-c2cccc(Cl)c2Cl)c1=O [Compound 195] | 9.00 | – | 7.52 | 7.96 | –
8 | CN(C)C(=O)C#Cc1ccc2c(c1)[C@@H](N)C1(CCN(c3ncc(Sc4ccnc(N)c4Cl)n4nccc34)CC1)C2 [Compound 196] | 8.52 | – | 7.68 | 8.10 | –
9 | COCC#Cc1ccc2c(c1)[C@@H](N)C1(CCN(c3cc(=O)n(-c4ccc(C#N)c(OC)c4F)c(C)n3)CC1)C2 [Compound 197] | 8.52 | – | 7.42 | 7.54 | –
10 | CNC(=O)C#Cc1ccc2c(c1)[C@@H](N)C1(CCN(c3nc(C)c(Sc4ccnc(N)c4Cl)nc3CO)CC1)C2 [Compound 199] | 9.00 | – | 7.92 | 8.30 | –
11 | CNC(=O)C#Cc1ccc2c(c1)[C@@H](N)C1(CCN(c3cc(=O)n(-c4ccc(F)c(F)c4Cl)c(C)n3)CC1)C2 [Compound 202] | 9.00 | 7.40 | 7.34 | – | –
12 | Cc1nc(Sc2ccnc(N)c2Cl)c(N)nc1N1CCC2(CC1)Cc1ccc(C#CC(=O)N(C)C)cc1[C@H]2N [Compound 203] | 8.70 | – | 7.80 | 8.15 | –
13 | COc1nccc(Sc2nc(C)c(N3CCC4(CC3)Cc3ccc(C#CC(=O)N(C)C)cc3[C@H]4N)nc2N)c1Cl [Compound 204] | 8.22 | – | 6.92 | 7.27 | –
14 | C#Cc1ccc2c(c1)[C@@H](N)C1(CCN(c3ncc(Sc4ccnc(N)c4Cl)c(N)n3)CC1)C2 [Compound 205] | 7.92 | 7.54 | – | – | 7.17
15 | CC#Cc1ccc2c(c1)[C@@H](N)C1(CCN(c3cc(=O)n(-c4cccc(OC)c4Cl)c(C)n3)CC1)C2 [Compound 206] | 8.52 | – | 7.11 | 7.16 | –
16 | CNC(=O)C#Cc1ccc2c(c1)[C@@H](N)C1(CCN(c3nc(N)c(Sc4ccnc(N)n4)nc3C)CC1)C2 [Compound 216] | 9.00 | – | 7.55 | 7.35 | –
17 | CCNC(=O)C#Cc1ccc2c(c1)[C@@H](N)C1(CCN(c3nc(N)c(Sc4ccnc(N)c4Cl)nc3C)CC1)C2 [Compound 219] | 8.52 | – | 8.22 | 8.15 | –

Row | Compound | pIC50 [1] | pIC50 ([2]; 2 hours) | pIC50 [3, 4] | pIC50 ([2]; Homo sapiens, MIA PaCa-2, 2 h) | pIC50 [3]
18 | CNC(=O)C#Cc1ccc2c(c1)[C@@H](N)C1(CCN(c3nc(N)c(Sc4ccnc(N)c4Cl)nc3Cl)CC1)C2 [Compound 222, (S)-3-(1-amino-1′-(6-amino-5-((2-amino-3-chloropyridin-4-yl)thio)-3-chloropyrazin-2-yl)-1,3-dihydrospiro[indene-2,4′-piperidin]-6-yl)-N-methylpropiolamide] | 8.40 | – | 7.82 | 8.22 | –
19 | Cc1nc(Sc2ccnc(N)c2Cl)c(N)nc1N1CCC2(CC1)Cc1ccc(C#CC(=O)NC3CC3)cc1[C@H]2N [Compound 225] | 8.70 | – | 8.70 | 8.22 | –
20 | CCNC(=O)C#Cc1ccc2c(c1)[C@@H](N)C1(CCN(c3cnc(Sc4ccnc(N)c4Cl)c(N)n3)CC1)C2 [Compound 226] | 9.00 | – | 9.40 | 8.70 | –
21 | CNC(=O)C#Cc1ccc2c(c1)[C@@H](N)C1(CCN(c3cnc(Sc4ccnc(N)c4Cl)cn3)CC1)C2 [Compound 227] | 9.00 | – | 9.40 | 8.70 | –
22 | CNC(=O)C#Cc1ccc2c(c1)[C@@H](N)C1(CCN(c3cnc(Sc4ccnc(N)c4Cl)c(N)n3)CC1)C2 [Compound 229, (S)-3-(1-amino-1′-(6-amino-5-((2-amino-3-chloropyridin-4-yl)thio)pyrazin-2-yl)-1,3-dihydrospiro[indene-2,4′-piperidin]-6-yl)-N-methylpropiolamide] | 9.00 | – | 9.30 | 8.70 | –
23 | Nc1nc(N2CCC3(CC2)Cc2ccc(C#CC(=O)NC4CC4)cc2[C@H]3N)c(Cl)nc1Sc1ccnc(N)c1Cl [Compound 230] | 8.00 | – | 8.13 | 7.51 | –
24 | CNC(=O)C#Cc1ccc2c(c1)[C@@H](N)C1(CCN(c3cnc(Sc4cccnc4Cl)cn3)CC1)C2 [Compound 231] | > 9.30 | – | 9.10 | 8.15 | –
25 | CNC(=O)C#Cc1ccc2c(c1)[C@@H](N)C1(CCN(c3ncc(Sc4ccnc(N)c4Cl)nc3C)CC1)C2 [Compound 232] | 8.70 | – | 9.05 | 8.10 | –
26 | CNC(=O)C#Cc1ccc2c(c1)[C@@H](N)C1(CCN(c3ncc(Sc4ccnc(N)n4)nc3C)CC1)C2 [Compound 233] | 8.96 | – | 8.49 | 7.85 | –
27 | CCNC(=O)C#Cc1ccc2c(c1)[C@@H](N)C1(CCN(c3cnc(Sc4cccnc4C(F)(F)F)c(N)n3)CC1)C2 [Compound 235] | 8.77 | – | 9.05 | 8.05 | –
28 | CNC(=O)C#Cc1ccc2c(c1)[C@@H](N)C1(CCN(c3cnc(Sc4cccnc4C(F)(F)F)c(N)n3)CC1)C2 [Compound 236] | 8.89 | – | 9.00 | 8.52 | –
29 | CCCNC(=O)C#Cc1ccc2c(c1)[C@@H](N)C1(CCN(c3nc(N)c(Sc4ccnc(N)c4Cl)nc3C)CC1)C2 [Compound 237] | 8.41 | – | 8.62 | 8.40 | –
30 | CCNC(=O)C#Cc1ccc2c(c1)[C@@H](N)C1(CCN(c3cnc(Sc4cccnc4Cl)c(N)n3)CC1)C2 [Compound 238] | 8.89 | – | 9.00 | 8.40 | –
31 | CNC(=O)C#Cc1ccc2c(c1)[C@@H](N)C1(CCN(c3nc(N)c(Sc4ccnc(N)c4Cl)nc3F)CC1)C2 [Compound 239, (S)-3-(1-amino-1′-(6-amino-5-((2-amino-3-chloropyridin-4-yl)thio)-3-fluoropyrazin-2-yl)-1,3-dihydrospiro[indene-2,4′-piperidin]-6-yl)-N-methylpropiolamide] | 8.52 | – | 8.68 | 7.82 | –
32 | CNC(=O)C#Cc1ccc2c(c1)[C@@H](N)C1(CCN(c3nc(N)c(Sc4ccnc(N)c4Cl)nc3Br)CC1)C2 [Compound 240, (S)-3-(1-amino-1′-(6-amino-5-((2-amino-3-chloropyridin-4-yl)thio)-3-bromopyrazin-2-yl)-1,3-dihydrospiro[indene-2,4′-piperidin]-6-yl)-N-methylpropiolamide] | 8.82 | – | 8.30 | 7.74 | –
33 | C#Cc1ccc2c(c1)[C@@H](N)C1(CCN(c3nc(N)c(Sc4ccnc(N)c4Cl)nc3C)CC1)C2 [Compound 241] | 8.92 | – | 8.42 | 8.00 | –
